Patent US8906884B2, “Method of treating graft-rejection using dextran sulfate” (TX Medic AB, priority 2002, dated 2014)
Where two headings read alike, the source gives them in different places.

Key:
[1] = tested on: Porcine aortic endothelial cells; conditions: 25 mg/ml, in words; cited from earlier work
[2] = tested on: clot formation induced by API in human blood; conditions: for Clot formation / clotting time versus no additives: 0.01 and 0.1 mg/ml, in words
Method: Blood was drawn from four healthy volunteers into Vacutainer™ tubes containing citrate. Whole blood (980 μl) was incubated with 2 μl of API at 37° C. in polypropylene sample cups in a ReoRox™ rheometer (Global Haemostasis International, Gothenburg, Sweden). […] Every 6 s, the cup was set into free torsional oscillation around its vertical axis, and the damping and frequency of the oscillation was registered. Clotting time was identified as the point of maximal damping.

[3] = tested on: IBMIR triggered by API in fresh human blood
Method: (§1) This protocol is basically performed as previously described with some modifications. In general words, loops made of PVC (diameter 6.3 mm, length 390 mm), whose inner surface was furnished with immobilized heparin, were used. The tubing was held together with a specially designed heparinized connector. A circular loop was formed when the ends of the connector were tightly pushed into the lumen of the tubing ends. A rocking apparatus, placed in a 37° C. incubator, was used to generate blood flow inside the loops. The loops were rocked at a setting that prevented the blood from coming in contact with the connectors.
(§2) Seven 60-min islet experiments were performed, using API isolated from four different pigs. […] For each experiment, one loop containing fresh human blood and saline without API was included as a control. […] Concurrently, pre-incubation of human blood with 1 mg/ml of LMW-dextran, which was not sulfated, was tested in five experiments. In each experiment, 7 ml of fresh human blood from the same donor was added to each loop. […] Thereafter, the loops were opened, and 100 μl of saline with or without 5 μl of API (approximately 5,000 IEQ) was added to the loops and followed by another 60-min incubation on the rocking device at 37° C. Blood glucose levels were measured with a glucometer (Glucometer Elite; Bayer Diagnostics, Leverkusen, Germany) before the perfusion.
After every perfusion, the loop contents were filtered through 70 μm-diameter filters (Filcons, Cuptype; DAKO, Denmark). Both macroscopic blood clots and tissue recovered on the filters were snap-frozen in isopentane for immunohistochemical staining. The remaining filtered blood was collected in 4.1 mM EDTA (final concentration) and used for hematological analysis (platelets, lymphocytes, monocytes, and granulocytes) and assays of coagulation activation (thrombin-antithrombin [TAT], factor XIa-antithrombin complexes [FXIa-AT], and factor XIIa-antithrombin complexes [FXIIa-AT]), fibrinolysis activation (plasmin-alpha 2 antiplasmin complexes [PAP]), complement activation (C3a and sC5b-9), and C1 esterase inhibitor activation (factor XIa-C1 esterase inhibitor [FXIa-C1 INH], factor XIIa-C1 esterase inhibitor [FXIIa-C1 INH]). Samples taken at 0, 15, and 30 min were also analyzed. In 0-min samples, the blood was not added to the tubing loop but was instead transferred immediately to the EDTA-containing tubes. The blood samples were centrifuged at 4° C. at 3290×g for 20 min, and the plasma was collected and stored at −70° C. until analyzed.
Platelet counts and differential leukocyte counts were analyzed on a Coulter ACT-diff analyzer (Beckman Coulter, Fla., USA) using EDTA-treated blood. TAT and PAP were quantified using commercially available enzyme immunoassays (EIA) kits (Enzygnost TAT, Behringswerke, Marburg, Germany; Imuclone® PAP, American Diagnostica Inc., Greenwich, USA). FXIa-AT, FXIIa-AT, FXIa-C1 INH, and FXIIa-C1 INH were analyzed according to the method of Sanchez et al.. C3a was analyzed as previously described by Nilsson Ekdahl et al., and sC5b-9 was analyzed using a modification of the EIA described by Mollnes et al..

[4] = tested on: porcine islets perfused with human blood
Method: as §1, §2
(§3) Islets were sectioned and subsequently stained with horseradish peroxidase (HRP) conjugated mouse anti-human CD41a (R&D Systems, Abigdon, UK) and anti-CD11b^+ (Clone 2LPM 19c, DAKO, Carpinteria, Calif., USA). In the in vivo study, the API-containing mouse livers were retrieved 10 days after transplantation and snap-frozen in isopentane. The samples were sectioned and stained with guinea pig anti-insulin (DAKA, Carpinteria, Calif., USA) and rat anti-mouse CD11b^+ (Serotec Ltd. Scandinavia, Oslo, Norway).

[5] = tested on: porcine islets transplanted into diabetic athymic mice
Method: (§4) After being cultured for 4 days, 5 μl of API (˜5000 IEQs) from five isolations were transplanted into the liver via the portal vein of 11 male inbred diabetic athymic mice, which were anesthetized during surgery with isoflurene. […] Six (untreated) mice were injected with an equivalent volume of saline in the same manner.
as §3

[6] = tested on: API graft in diabetic athymic mice; conditions: implantation site liver, i.v. treatment, n = 5; duration of normoglycemia
Method: Diabetes was induced in athymic mice by intravenous (i.v.) injection of steptozotocin from Sigma Chemicals (Palo Alto, Calif., USA) according to Wennberg et al.. The steptozotocin dose was 250 mg/kg body weight for the athymic mice. An animal was considered diabetic if its blood glucose (B-glucose) level exceeded 20 mmol/l (>360 mg/dl) for 2 or more consecutive days.
as §4
Blood glucose levels were measured in blood obtained from tails of recipients using a Glucometer Elite® B-glucose measuring instrument (Bayer AB, Gothenburg, Sweden). Measurements were taken daily before 12 am and expressed as mmol/l (1 mmol/l≈18 mg/dl). Loss of graft function was considered to have occurred if B-glucose levels exceeded 11.1 mmol/l (>200 mg/dl) for 2 or more consecutive days. Post-transplant duration of normoglycemia (<200 mg/dl) was defined as the graft survival period.

complement system = conditions: FIG. 3, in words
Method: At 5, 10, 15, 30, 45, and 60 min after serum incubation at 37° C., 100 μl of serum was transferred to tubes containing 10 mM EDTA. These samples were stored at −70° C. before analysis of the complement components C3a and sC5b-9.
Filled bars represent generation of C3a and unfilled correspond to sC5b-9.

pig lungs = conditions: 2 mg/ml; HAR after 30 min without; cited from earlier work
[7] = tested on: STZ-induced diabetic mice; conditions: intraperitoneal, intrahepatic islets, in words; cited from earlier work
[8] = cited from earlier work
[9] = Table 4 comparison, 60 min API perfusion, 1 mg/ml, n = 5
[10] = after 60 min perfusion, API with 0.01 mg/ml, n = 7
[11] = after 60 min perfusion, API with 0.1 mg/ml, n = 7
[12] = after 60 min perfusion, API with 1 mg/ml, n = 7
[13] = continuous injection about 45 mg/hour, in words

CMDB25 dextran sulfate
Complement activation and cytolytic complex deposition on the cells [1]: inhibited

High molecular weight dextran sulfate [HMW-DS]
Clot formation / clotting time versus no additives [2]: inhibited clot formation only at 0.1 mg/ml | Clotting time ([2]; experiment 1, 0.01 mg/ml): 15.8 min | Clotting time ([2]; experiment 1, 0.1 mg/ml): >60 min | Clotting time ([2]; experiment 2, 0.01 mg/ml): 36.9 min | Clotting time ([2]; experiment 2, 0.1 mg/ml): >60 min | Clotting time ([2]; experiment 3, 0.01 mg/ml): 21.0 min | Clotting time ([2]; experiment 3, 0.1 mg/ml): >60 min | Clotting time ([2]; experiment 4, 0.01 mg/ml): 38.3 min | Clotting time ([2]; experiment 4, 0.1 mg/ml): >60 min

Low molecular weight dextran [LMW-D, reference compound]
Effect on IBMIR ([3]; 1 mg/ml, 60 min API perfusion, in words): only a marginal effect | C3a [3, 9]: 1490.3 ± 406.4 ng/mL | FXIa-AT [3, 9]: 1.09 ± 0.08 µmol/L | Granulocytes (×10^9/l) [3, 9]: 1.90 ± 0.43 ×10^9/l | Lymphocytes (×10^9/l) [3, 9]: 2.14 ± 0.32 ×10^9/l | Monocytes (×10^9/l) [3, 9]: 0.29 ± 0.08 ×10^9/l | Platelets (×10^9/l) [3, 9]: 44.9 ± 18.7 ×10^9/l | TAT [3, 9]: 4429.2 ± 2002.5 µg/mL | sC5b-9 (AU/ml) [3, 9]: 157.3 ± 19.1 AU/ml | Clot formation / clotting time versus no additives [2]: extended the clotting time to only a minor degree | Clotting time ([2]; experiment 1, 0.01 mg/ml): 19.2 min | Clotting time ([2]; experiment 1, 0.1 mg/ml): 25.2 min | Clotting time ([2]; experiment 2, 0.01 mg/ml): 11.3 min | Clotting time ([2]; experiment 2, 0.1 mg/ml): 25.8 min

Low molecular weight dextran sulfate [LMW-DS]
Number of infiltrating CD11b+ cells ([4]; 1 mg/ml, 60 min, FIG. 5, in words): decreased considerably | Clot formation around islets ([4]; 1 mg/ml, 60 min, in words): complete inhibition | Layer of platelets adhering to the islets ([4]; FIG. 7, in words): much thinner layer | Frequency of clot formation and intensity of leukocyte infiltration versus untreated recipients ([5]; p=0.034, in words): significantly lower | Islets entrapped in clots ([5]; treated mice, FIG. 9, in words): only a few islets | Infiltrating CD11b+ (MAC-1+) cells ([5]; treated mice, FIG. 11, in words): markedly fewer | Mean graft survival [6]: 8.8 ± 1.9 days | Generation of C3a ([3]; 0.01 mg/ml, FIG. 1, in words): significantly reduces | Coagulation activation products TAT, FXIa-AT and FXIIa-AT ([3]; 0.01 mg/ml, in words): suppressed | PAP ([3]; 0.01 mg/ml, in words): significantly suppressed | Generation of C3a and membrane attack complex sC5b-9 ([3]; 0.1 mg/ml and 1 mg/ml, FIGS. 1 and 2, in words): totally inhibits | C3a [3, 9]: 171.5 ± 72.4 ng/mL | FXIa-AT [3, 9]: 1.56 ± 0.82 µmol/L | Granulocytes (×10^9/l) [3, 9]: 3.23 ± 0.21 ×10^9/l | Lymphocytes (×10^9/l) [3, 9]: 1.94 ± 0.12 ×10^9/l | Monocytes (×10^9/l) [3, 9]: 0.38 ± 0.10 ×10^9/l | Platelets (×10^9/l) [3, 9]: 181.1 ± 16.3 ×10^9/l | TAT [3, 9]: 12.8 ± 4.9 µg/mL | sC5b-9 (AU/ml) [3, 9]: 41.6 ± 11.5 AU/ml | C3a [3, 10]: 630.6 ± 103.4 ng/mL | FXIIa-AT [3, 10]: 0.08 ± 0.02 µmol/L | FXIIa-C1 inh [3, 10]: 0.10 ± 0.03 µmol/mL | FXIa-AT [3, 10]: 0.13 ± 0.01 µmol/L | Granulocytes (×10^9/l) [3, 10]: 2.20 ± 0.40 ×10^9/l | Lymphocytes (×10^9/l) [3, 10]: 1.90 ± 0.11 ×10^9/l | Monocytes (×10^9/l) [3, 10]: 0.48 ± 0.10 ×10^9/l | PAP [3, 10]: 398.2 ± 60.7 ng/mL | Platelets (×10^9/l) [3, 10]: 108.2 ± 12.9 ×10^9/l | TAT [3, 10]: 645.3 ± 177.4 µg/mL | sC5b-9 (AU/ml) [3, 10]: 151.4 ± 27.9 AU/ml | C3a [3, 11]: 191.7 ± 36.6 ng/mL | FXIa-AT [3, 11]: 0.08 ± 0.01 µmol/L | Granulocytes (×10^9/l) [3, 11]: 2.80 ± 0.50 ×10^9/l | Lymphocytes (×10^9/l) [3, 11]: 1.91 ± 0.12 ×10^9/l | Monocytes (×10^9/l) [3, 11]: 0.40 ± 0.07 ×10^9/l | Platelets (×10^9/l) [3, 11]: 146.1 ± 8.1 ×10^9/l | TAT [3, 11]: 61.0 ± 8.6 µg/mL | sC5b-9 (AU/ml) [3, 11]: 61.9 ± 6.5 AU/ml | C3a [3, 12]: 215.6 ± 52.2 ng/mL | FXIa-AT [3, 12]: 1.17 ± 0.41 µmol/L | Granulocytes (×10^9/l) [3, 12]: 2.92 ± 0.37 ×10^9/l | Lymphocytes (×10^9/l) [3, 12]: 1.89 ± 0.10 ×10^9/l | Monocytes (×10^9/l) [3, 12]: 0.31 ± 0.05 ×10^9/l | Platelets (×10^9/l) [3, 12]: 162.3 ± 8.9 ×10^9/l | TAT [3, 12]: 15.0 ± 5.6 µg/mL | sC5b-9 (AU/ml) [3, 12]: 53.9 ± 7.1 AU/ml | Coagulation and complement activation ([3]; dose-dependent, in words): reduced | Blood cell consumption ([3]; in words): inhibited | Macroscopic clotting ([3]; in words): prevented | FXIIa-C1 INH ([3]; presence or absence of LMW-DS, in words): did not change | Clot formation / clotting time versus no additives [2]: totally abrogated | Clotting time ([2]; experiment 1, 0.01 mg/ml): >60 min | Clotting time ([2]; experiment 1, 0.1 mg/ml): >60 min | Clotting time ([2]; experiment 2, 0.01 mg/ml): >60 min | Clotting time ([2]; experiment 2, 0.1 mg/ml): >60 min | Clotting time ([2]; experiment 3, 0.01 mg/ml): >60 min | Clotting time ([2]; experiment 3, 0.1 mg/ml): >60 min | Clotting time ([2]; experiment 4, 0.01 mg/ml): >60 min | Clotting time ([2]; experiment 4, 0.1 mg/ml): >60 min | Generation of C3a and sC5b-9 in human serum (complement system; 0.01 mg/ml): increased generation | Generation of C3a and sC5b-9 in human serum (complement system; 1 mg/ml): inhibitory effect

Native dextran
Complement activation and cytolytic complex deposition on the cells [1]: no such an effect

dextran sulfate
Lung survival (pig lungs): about 200 min | Effect of dextran sulfate alone on hyperglycemia [7]: some beneficial effect in a few mice

dextran sulfate [dextran sulfate (MW 8 000 Da)]
Blood concentration ([8]; continuous injection about 45 mg/hour for 2-3 weeks): approximately 0.01 mg/ml | Alopecia [8, 13]: reported in about half of the patients | Thrombocytopenia [8, 13]: observed after 3 days treatment

high molecular weight dextran [HMW-D, reference compound]
Clot formation / clotting time versus no additives [2]: extended the clotting time to only a minor degree | Clotting time ([2]; experiment 1, 0.01 mg/ml): 19.8 min | Clotting time ([2]; experiment 1, 0.1 mg/ml): 14.2 min | Clotting time ([2]; experiment 2, 0.01 mg/ml): 13.8 min | Clotting time ([2]; experiment 2, 0.1 mg/ml): 33.2 min
